The assay deals with bacteria or mold. Kind of assay: retention of antimicrobial activity on a substrate. As to conditions: no test method described.

The record followed here is patent publication US20120190754A1, “ANTIMICROBIAL COMPOSITION CONTAINING PARACHLORMETAXYLENOL” (Sentinel Products Corp., priority 2009, published 2012).

`Cc1cc(O)cc(C)c1Cl` [PCMX, 4-chloro-3,5-dimethyl phenol]: the “duration of antimicrobial effect on a substrate” value was “hours”.
